Results as given in US8859571B2, “Quinazoline compounds” (GlaxoSmithKline LLC, priority 2009, dated 2014).

Molecular target: T1, Full length human TNNI3K (hTNNI3K) (Homo sapiens, UniProt Q59H18)
T1 construct: His-MBP-TEV-Full length human TNNI3K (hTNNI3K); His (N); MBP (N); TEV cleavage site (N); made in house; host or cells: baculovirus system (printed 'Baculokinase system')
T1 sequence (Q59H18 1-835): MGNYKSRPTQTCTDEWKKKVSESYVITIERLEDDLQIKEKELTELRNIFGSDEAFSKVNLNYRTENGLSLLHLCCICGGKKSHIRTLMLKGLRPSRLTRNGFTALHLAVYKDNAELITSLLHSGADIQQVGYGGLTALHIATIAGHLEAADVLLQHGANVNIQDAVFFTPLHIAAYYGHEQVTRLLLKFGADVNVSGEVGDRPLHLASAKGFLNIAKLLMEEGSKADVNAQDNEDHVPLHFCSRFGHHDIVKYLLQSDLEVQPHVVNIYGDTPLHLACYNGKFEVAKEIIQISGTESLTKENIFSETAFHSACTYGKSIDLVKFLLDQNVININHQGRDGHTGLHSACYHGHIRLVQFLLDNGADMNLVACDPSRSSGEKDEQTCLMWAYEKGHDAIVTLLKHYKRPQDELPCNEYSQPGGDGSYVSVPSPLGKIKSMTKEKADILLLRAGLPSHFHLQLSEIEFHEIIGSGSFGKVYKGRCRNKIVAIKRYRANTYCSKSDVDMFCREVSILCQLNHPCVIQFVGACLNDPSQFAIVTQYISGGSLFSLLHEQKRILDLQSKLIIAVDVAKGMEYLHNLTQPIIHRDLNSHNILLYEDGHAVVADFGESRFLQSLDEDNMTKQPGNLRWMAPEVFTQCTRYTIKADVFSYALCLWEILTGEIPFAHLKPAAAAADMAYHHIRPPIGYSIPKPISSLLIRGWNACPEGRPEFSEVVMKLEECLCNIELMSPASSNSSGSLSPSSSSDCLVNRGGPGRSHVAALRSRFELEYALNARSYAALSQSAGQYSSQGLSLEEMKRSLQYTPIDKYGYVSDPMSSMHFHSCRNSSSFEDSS
Assay: Fluorescent polarization assay of compound inhibition on hTNNI3K ATP binding (Biological Assay Method I)
Conditions: displacement of fluorescent ligand from hTNNI3K ATP binding pocket; mean of a minimum of 2 experiments; read-out: pXC50 (the source's name) (converted)

- IC50: 10 to 100 nM
Compound: CNS(=O)(=O)c1ccc(OC(F)(F)F)c(Nc2ncnc3cc(OC)cc(OC(C)C)c23)c1 [Example 65, N-methyl-3-{[5-[(1-methylethyl)oxy]-7-(methyloxy)-4-quinazolinyl]amino}-4-[(trifluoromethyl)oxy] benzenesulfonamide]
